Reference: patent publication US20050250801A1, “Method of treating cancer with azaspirane compositions” (priority 2003, published 2005)
Where two headings read alike, the source gives them in different places.

Assays:
Assay type in all cases: cell-based
SW-620 = assay: NCI in vitro SRB assay, Colon Cancer; details: for CC50 / GI50: Homo sapiens
Procedure: (§1) An in vitro assay which tested the ability of N,N,-diethyl-8,8-dipropyl-2-azaspiro[4,5]decane-2-propanamine dimaleate (Compound 1) to inhibit the growth of known cancer cell lines was performed by the National Cancer Institute in accordance with standard procedures. See: Lin, Z. X., Hoult, J. R., and Raman, A. Sulphorhodamine B assay for measuring proliferation of a pigmented melanocyte cell line and its application to the evaluation of crude drugs used in the treatment of vitiligo. J Ethnopharmacol. 66: 141-150, 1999. Briefly, selected tumor cell lines were cultured in media containing five different concentrations of Compound 1. After 48 hours of continuous exposure, a sulforhodamine B (SRB) assay was used to estimate cell viability or growth via optical measurements.
(§2) From the measurements, the following values were determined: 1) the concentration of Compound 1 at which a tumor cell growth inhibition of 50% (relative to control) occurs (GI50), 2) the concentration of Compound 1 at which no growth occurs (total growth inhibition, TGI), and 3) the concentration of Compound 1 at which the […] (LC 50). […] FIG. 6 illustrates, graphically, tumor cell growth as a function of Compound 1 concentration of the scanned tumor cell lines.

HCT-15 = assay: NCI in vitro SRB assay, Colon Cancer; details: for CC50 / GI50: Homo sapiens
Procedure: as §1, §2

HCT-116 = assay: NCI in vitro SRB assay, Colon Cancer; details: for CC50 / GI50: Homo sapiens
Procedure: as §1, §2

HCC-2998 = assay: NCI in vitro SRB assay, Colon Cancer; details: for CC50 / GI50: Homo sapiens
Procedure: as §1, §2

RXF 393 = assay: NCI in vitro SRB assay, Renal Cancer; details: for CC50 / GI50: Homo sapiens
Procedure: as §1, §2

786-0 = assay: NCI in vitro SRB assay, Renal Cancer; details: for CC50 / GI50: Homo sapiens
Procedure: as §1, §2

CAKI-1 = assay: NCI in vitro SRB assay, Renal Cancer; details: for CC50 / GI50: Homo sapiens
Procedure: as §1, §2

A498 = assay: NCI in vitro SRB assay, Renal Cancer; details: for GI50: Homo sapiens
Procedure: as §1, §2

[1] = SW-620, Log10 conc -4.0 Moles/L
[2] = SW-620, Log10 conc -5.0 Moles/L
[3] = SW-620, Log10 conc -6.0 Moles/L
[4] = SW-620, Log10 conc -7.0 Moles/L
[5] = SW-620, Log10 conc -8.0 Moles/L
[6] = HCT-15, Log10 conc -4.0 Moles/L
[7] = HCT-15, Log10 conc -5.0 Moles/L
[8] = HCT-15, Log10 conc -6.0 Moles/L
[9] = HCT-15, Log10 conc -7.0 Moles/L
[10] = HCT-15, Log10 conc -8.0 Moles/L
[11] = HCT-116, Log10 conc -4.0 Moles/L
[12] = HCT-116, Log10 conc -5.0 Moles/L
[13] = HCT-116, Log10 conc -6.0 Moles/L
[14] = HCT-116, Log10 conc -7.0 Moles/L
[15] = HCT-116, Log10 conc -8.0 Moles/L
[16] = HCC-2998, Log10 conc -4.0 Moles/L
[17] = HCC-2998, Log10 conc -5.0 Moles/L
[18] = HCC-2998, Log10 conc -6.0 Moles/L
[19] = HCC-2998, Log10 conc -7.0 Moles/L
[20] = HCC-2998, Log10 conc -8.0 Moles/L
[21] = RXF 393, Log10 conc -4.0 Moles/L
[22] = RXF 393, Log10 conc -5.0 Moles/L
[23] = RXF 393, Log10 conc -6.0 Moles/L
[24] = RXF 393, Log10 conc -7.0 Moles/L
[25] = RXF 393, Log10 conc -8.0 Moles/L
[26] = CAKI-1, Log10 conc -4.0 Moles/L
[27] = CAKI-1, Log10 conc -5.0 Moles/L
[28] = CAKI-1, Log10 conc -6.0 Moles/L
[29] = CAKI-1, Log10 conc -7.0 Moles/L
[30] = CAKI-1, Log10 conc -8.0 Moles/L

## CCCC1(CCC)CCC2(CCN(CCCN(CC)CC)C2)CC1.O=C(O)/C=C\C(=O)O.O=C(O)/C=C\C(=O)O [Compound 1, N,N,-diethyl-8,8-dipropyl-2-azaspiro[4,5]decane-2-propanamine dimaleate]
SW-620; SW-620, read-out: LC50
  CC50: 5170 nM
SW-620; SW-620, read-out: Log10 LC50 (converted)
  CC50: 5130 nM
SW-620; SW-620, read-out: GI50
  GI50: 1380 nM
SW-620; SW-620, read-out: Log10 GI50 (converted)
  GI50: 1380 nM
SW-620; SW-620
  Log10 TGI: −5.57
  TGI: 2670 nM
SW-620; [1]
  Mean Optical Densities: −0.016
  Percent Growth: −100%
SW-620; [2]
  Mean Optical Densities: −0.002
  Percent Growth: −100%
SW-620; [3]
  Mean Optical Densities: 0.789
  Percent Growth: 75%
SW-620; [4]
  Mean Optical Densities: 0.948
  Percent Growth: 95%
SW-620; [5]
  Mean Optical Densities: 0.948
  Percent Growth: 95%
HCT-15; HCT-15
  Log10 TGI: −5.87
  TGI: 1340 nM
HCT-15; [6]
  Mean Optical Densities: −0.026
  Percent Growth: −100%
HCT-15; [7]
  Mean Optical Densities: −0.027
  Percent Growth: −100%
HCT-15; [8]
  Mean Optical Densities: 0.371
  Percent Growth: 14%
HCT-15; [9]
  Mean Optical Densities: 0.819
  Percent Growth: 75%
HCT-15; [10]
  Mean Optical Densities: 0.878
  Percent Growth: 83%
HCT-15; HCT-15, read-out: LC50
  CC50: 3650 nM
HCT-15; HCT-15, read-out: Log10 LC50 (converted)
  CC50: 3630 nM
HCT-15; HCT-15, read-out: GI50
  GI50: 261 nM
HCT-15; HCT-15, read-out: Log10 GI50 (converted)
  GI50: 263 nM
HCT-116; HCT-116
  Log10 TGI: −5.63
  TGI: 2370 nM
HCT-116; [11]
  Mean Optical Densities: 0.061
  Percent Growth: −63%
HCT-116; [12]
  Mean Optical Densities: 0.051
  Percent Growth: −69%
HCT-116; [13]
  Mean Optical Densities: 0.407
  Percent Growth: 41%
HCT-116; [14]
  Mean Optical Densities: 0.675
  Percent Growth: 87%
HCT-116; [15]
  Mean Optical Densities: 0.744
  Percent Growth: 99%
HCT-116; HCT-116, read-out: LC50
  CC50: 6730 nM
HCT-116; HCT-116, read-out: Log10 LC50 (converted)
  CC50: 6760 nM
HCT-116; HCT-116, read-out: GI50
  GI50: 646 nM
HCT-116; HCT-116, read-out: Log10 GI50 (converted)
  GI50: 646 nM
HCC-2998; HCC-2998
  Log10 TGI: −6.62
  TGI: 239 nM
HCC-2998; [16]
  Mean Optical Densities: 0.036
  Percent Growth: −84%
HCC-2998; [17]
  Mean Optical Densities: 0.019
  Percent Growth: −92%
HCC-2998; [18]
  Mean Optical Densities: 0.057
  Percent Growth: −74%
HCC-2998; [19]
  Mean Optical Densities: 0.303
  Percent Growth: 45%
HCC-2998; [20]
  Mean Optical Densities: 0.338
  Percent Growth: 64%
HCC-2998; HCC 2998, read-out: LC50
  CC50: 628 nM
HCC-2998; HCC 2998, read-out: Log10 LC50 (converted)
  CC50: 631 nM
HCC-2998; HCC-2998, read-out: GI50
  GI50: 54.9 nM
HCC-2998; HCC-2998, read-out: Log10 GI50 (converted)
  GI50: 55 nM
RXF 393; RXF 393, read-out: LC50
  CC50: 7100 nM
RXF 393; RXF 393, read-out: Log10 LC50 (converted)
  CC50: 7080 nM
RXF 393; RXF 393, read-out: GI50
  GI50: 1640 nM
RXF 393; RXF 393, read-out: Log10 GI50 (converted)
  GI50: 1620 nM
RXF 393; RXF 393
  Log10 TGI: −5.47
  TGI: 3410 nM
RXF 393; [21]
  Mean Optical Densities: 0.083
  Percent Growth: −74%
RXF 393; [22]
  Mean Optical Densities: 0.086
  Percent Growth: −73%
RXF 393; [23]
  Mean Optical Densities: 0.943
  Percent Growth: 84%
RXF 393; [24]
  Mean Optical Densities: 1.028
  Percent Growth: 95%
RXF 393; [25]
  Mean Optical Densities: 1.017
  Percent Growth: 94%
786-0; 786-0
  Log10 TGI: −5.48
  TGI: 3330 nM
786-0; 786-0, Log10 conc -4.0 Moles/L
  Mean Optical Densities: 0.132
  Percent Growth: −64%
786-0; 786-0, Log10 conc -5.0 Moles/L
  Mean Optical Densities: 0.121
  Percent Growth: −67%
786-0; 786-0, Log10 conc -6.0 Moles/L
  Mean Optical Densities: 0.934
  Percent Growth: 73%
786-0; 786-0, Log10 conc -7.0 Moles/L
  Mean Optical Densities: 1.091
  Percent Growth: 94%
786-0; 786-0, Log10 conc -8.0 Moles/L
  Mean Optical Densities: 1.111
  Percent Growth: 96%
786-0; 786-0, read-out: LC50
  CC50: 7570 nM
786-0; 786-0, read-out: Log10 LC50 (converted)
  CC50: 7590 nM
786-0; 786-0, read-out: GI50
  GI50: 1470 nM
786-0; 786-0, read-out: Log10 GI50 (converted)
  GI50: 1480 nM
CAKI-1; CAKI-1
  Log10 TGI: −5.49
  TGI: 3270 nM
CAKI-1; [26]
  Mean Optical Densities: 0.136
  Percent Growth: −83%
CAKI-1; [27]
  Mean Optical Densities: 0.150
  Percent Growth: −81%
CAKI-1; [28]
  Mean Optical Densities: 1.691
  Percent Growth: 86%
CAKI-1; [29]
  Mean Optical Densities: 1.607
  Percent Growth: 78%
CAKI-1; [30]
  Mean Optical Densities: 1.646
  Percent Growth: 82%
CAKI-1; CAKI-1, read-out: LC50
  CC50: 6510 nM
CAKI-1; CAKI-1, read-out: Log10 LC50 (converted)
  CC50: 6460 nM
CAKI-1; CAKI-1, read-out: GI50
  GI50: 1650 nM
CAKI-1; CAKI-1, read-out: Log10 GI50 (converted)
  GI50: 1660 nM
A498
  Log10 TGI: −5.50
  TGI: 3130 nM
A498; read-out: GI50
  GI50: 1680 nM
A498; read-out: Log10 GI50 (converted)
  GI50: 1700 nM
A498; Log10 conc -4.0 Moles/L
  Mean Optical Densities: 0.157
  Percent Growth: −85%
A498; Log10 conc -5.0 Moles/L
  Mean Optical Densities: 0.065
  Percent Growth: −94%
A498; Log10 conc -6.0 Moles/L
  Mean Optical Densities: 1.336
  Percent Growth: 92%
A498; Log10 conc -7.0 Moles/L
  Mean Optical Densities: 1.327
  Percent Growth: 89%
A498; Log10 conc -8.0 Moles/L
  Mean Optical Densities: 1.297
  Percent Growth: 79%
